Common to all, as to assay type: physicochemical
Data set [1] is described as follows: Thermal treatment of solid forms. Particulars: held 10 min; for XRPD after thermal treatment to 210° C.: 30 to 210° C. at 10° C./min, cooled to 30° C. Here is the method: Thermal treatment of the Amorphous freebase was carried out. 10 mg of amorphous Compound 1 freebase was weighed into a 100 μL DSC pan. The pan was heated at a rate of 10° C./min to 200° C., held at 200° C. for 10 min, then cooled at a rate of 20° C./min to 25° C. Data not shown. The resulting solids were brittle and dark-orange. The solids sampled for XRPD, NMR, and HPLC purity analysis indicated decomposition of Compound 1 freebase rather than maintaining the amorphous state or conversion to a crystalline form.
Thermal treatment of Form III freebase to 210° C. was carried out. Approximately 5 mg of Form III freebase was weighed into a DSC pan. The sample was heated from 30° C. to 210° C. at a rate of 10° C./min, held at 210° C. for 10 min, then cooled from 210° C. to 30° C. at a rate of 20° C./min. […] Data not shown. The peaks at 16.2 °2θ and 20.1 °2θ may have been due to trace amounts of Form II freebase (Example 3).
Thermal treatment of Form IV freebase to 210° C. was carried out. Approximately 5 mg of Form IV freebase was weighed into a DSC pan. The sample was heated from 30° C. to 210° C. at a rate of 10° C./min, held at 210° C. for 10 min, then cooled from 210° C. to 30° C. at a rate of 20° C./min.

Data set [2] is described as follows: Solvent addition to Amorphous freebase.
Data set [3] in a line: Dynamic Vapor Sorption (DVS). Particulars: for water uptake, weight gain between 5-95% relative humidity (RH) / hygroscopicity: DVS; for DVS mass change 5-95% RH (wt. %) / water uptake, weight gain between 5-95% relative humidity (RH): 5-95% RH; for hygroscopicity: all adsorbed water lost during the drying cycle; for XRPD pre- and post-DVS: form stability after DVS cycle. Here is the method:
DVS was performed using TA Instruments Q5000SA. The sample (5-15 mg) was loaded into a metallic quartz sample pan, suspended from a microbalance, and exposed to a humidified stream of nitrogen gas. Weight changes were relative to a matching empty reference pan opposite the sample, suspended from the microbalance. The sample was held for a minimum of 10 min at each level and only progressed to the next humidity level if there was <0.002% change in weight between measurements (interval: 5 s) or 45 min had elapsed (for 5-65% RH) or 2 h had elapsed (for 80 and 95% RH). Mass change by DVS is related to hygroscopicity.

The nature of data set [4]: Solid form stability studies, 75% RH at 40° C. for one week (XRPD and HPLC). Conditions: for XRPD (tested material): 75% ± 5% RH at 40° C. ± 2° C. for 1 week; for Purity % a/a (tested material) / Purity % a/a (input material): HPLC; for Purity % a/a (tested material): after 75% ± 5% RH at 40° C. ± 2° C. for 1 week; for Purity % a/a (input material): before stability test. Here is the method:
Solid form stability studies were performed on Form I-V freebase forms by weighing approximately 10-15 mg of the crystalline material into 4 mL vials and covering with a lab grade task wipe (Kimwipe). These vials were placed inside a stability chamber set at 75%±5% relative humidity (RH) at 40° C.±2° C., where they were left for one week (7 full days). The retrieved material was then analyzed by XRPD and HPLC. In each case, the initial material and tested material were identical by XRPD, with the exception of Form I freebase, where an extra peak at 5.8 °2θ in the initial material was absent after the stability test. HPLC purities of the tested material were essentially unchanged from those of the initial material.

Data set [5] is described as follows: First set of competitive slurry experiments (Form I-IV freebases). Particulars: for relative stability of Forms I-IV freebases: five solvent systems; for evidence of form by XRPD after 2 days: slurries seeded with Forms I-IV, RT or 50° C., all experiments. Here is the method:
Competitive slurry experiments were carried out with Form I-IV freebases at two temperatures, room temperature (RT) and 50° C., in five solvents/solvent systems. First, saturated solutions of Form I freebase (Example 2) were prepared at each temperature in each solvent system. To make the saturated solutions, Form I freebase was added to 2 mL of solvent already stirring at the desired temperature, either room temperature (RT) or at 50° C. Once a thin slurry was observed, the samples were left to equilibrate overnight. After stirring overnight, the stir bars were removed to allow the solids to settle, and the supernatant was pipetted into clean 4 mL vials containing a 10 mm stir bar.
The supernatant was then left to stir for an additional 15 min prior to adding seeds (approximately 5 mg per form, pre-weighed) of the following patterns: Form I freebase (Example 2), Form II freebase (Example 3), Form III freebase (Example 4) and Form IV freebase (Example 5). Samples of the slurries were plated for XRPD analysis immediately after seeding. The slurries were then sampled again after 2 days and 7 days at the respective temperatures.

A short description of data set [6]: Drying of Patterns overnight at 50° C. Conditions: XRPD. Here is the method:
For fast-cooling crystallization, Form I freebase was obtained from methanol (MeOH), MeOH:water (9:1 vol.), ethanol (EtOH):water (9:1 vol.), ethyl acetate (EtOAc):N,N-dimethylformamide (DMF) (9:1 vol.), and EtOH:tetrahydrofuran (THF) (3:7 vol.). Form II freebase (Example 3) was obtained from THF, and from acetonitrile:dimethylformamide (DMF) (9:1 vol.) as a mixture with Form I freebase. Pattern C (Example 7) was obtained from isopropanol (IPA):water (9:1 vol.) at −20° C.
Pattern B (Example 7) was obtained from dimethylacetamide (DMAc)/methyl isobutyl ketone (MIBK) after standing overnight at −20° C. […] A mixture of Form III freebase (Example 4) (major) and Form I freebase (minor) was obtained from the direct addition of water into dimethylsulfoxide (DMSO). The ratio of the two patterns was unchanged after drying in vacuo at 50° C. for 4 h. Reverse addition (DMSO/water) gave Form III freebase (Example 4) alone, with no evidence of Form I freebase. Reverse antisolvent addition (dimethylacetamide (DMAc)/water or N-methylpyrrolidone (NMP)/water) gave Form IV freebase (Example 5).
Pattern B freebase was obtained from dimethylacetamide (DMAc)/methyl isobutyl ketone (MIBK) after standing overnight at −20° C. See Example 2, Table 2B. […] The XRPD of Pattern B freebase, taken before drying, is provided in FIG. 7C, and the corresponding signal list is provided in Table 7B.
Pattern C freebase was obtained from isopropanol (IPA):water (9:1 vol.) at −20° C.

Data set [7] is described as follows: Dry and solvent-drop milling of Form I freebase. Particulars: 16 s at 3500 rpm. Here is the method: Dry and solvent-drop milling on pure-phase Form I freebase was performed using a ball mill with ¼ inch stainless steel ball as milling media. Approximately 30-35 mg of Form I freebase was weighed into a milling capsule and 1 vol. of solvent (solvent drop) was added. The milling was carried out for 16 s at 3500 rpm. Overall, no new patterns were identified from dry and solvent-drop milling experiments. […] Loss of crystallinity was most evident in the dry-milled sample, though Form I freebase pattern was still readily distinguished.

Molecules are shown by their SMILES.

Consider `CC(C)(O)CNc1nnc(-c2ccc(Cl)cc2O)c2ccncc12` [Amorphous freebase, 5-chloro-2-(4-((2-hydroxy-2-methylpropyl)amino)pyrido[3,4-d]pyridazin-1-yl)phenol], for which the “XRPD, NMR, and HPLC purity analysis after thermal treatment” value in data set [1] (heated 10° C./min to 200° C., cooled to 25° C.) is given as “decomposition”. Also, the entries for the “form conversion upon addition of solvent” value in data set [2] (5 vol. acetone) and in data set [2] (toluene) were “Rapid conversion of the Amorphous freebase to Form I freebase” and “rapid conversion of the Amorphous freebase to Form II freebase”, respectively.
`CC(C)(O)CNc1nnc(-c2ccc(Cl)cc2O)c2ccncc12` [Form II freebase, 5-chloro-2-(4-((2-hydroxy-2-methylpropyl)amino)pyrido[3,4-d]pyridazin-1-yl)phenol]: in data set [3], the “DVS mass change 5-95% RH (wt. %)” value is listed as 1.03 wt. %; the “water uptake, weight gain between 5-95% relative humidity (RH)” value was “about 1.03%”; the hygroscopicity result is listed as “slightly, hygroscopic”; the “XRPD pre- and post-DVS” value was “remained unchanged”. In addition, in data set [4], the “XRPD (tested material)” value is “Form II”, the “Purity % a/a (tested material)” value was found to be 98.12 % a/a and the “Purity % a/a (input material)” value is 98.12 % a/a. For the same molecule, in data set [5] (RT and 50° C., 7 days), the “form favored after 7 days” value is “favored in most solvent systems”. Further, the “relative stability of Forms I-IV freebases” value in data set [5] (RT and 50° C.) is reported as “more stable”. Further, the “form favored, Form II vs Form I” value in data set [5] (overall conclusion of first set) is listed as “favored over Form I freebase in all solvent systems except acetone:water (7:3 vol.)”.
As for `CC(C)(O)CNc1nnc(-c2ccc(Cl)cc2O)c2ccncc12` [Pattern B freebase, 5-chloro-2-(4-((2-hydroxy-2-methylpropyl)amino)pyrido[3,4-d]pyridazin-1-yl)phenol], the “form after drying overnight at 50° C.” value in data set [6] and in data set [6] (listed as Pattern B) was “conversion to Form I freebase” in each case.
In the case of `CC(C)(O)CNc1nnc(-c2ccc(Cl)cc2O)c2ccncc12` [Pattern C freebase, 5-chloro-2-(4-((2-hydroxy-2-methylpropyl)amino)pyrido[3,4-d]pyridazin-1-yl)phenol], the “form after drying overnight at 50° C.” value in data set [6] was “converted to the low-crystalline version of Form I freebase (Pattern A freebase)”; in data set [6] (listed as Pattern C) it was “converted to Pattern A”.
For the molecule `CC(C)(O)CNc1nnc(-c2ccc(Cl)cc2O)c2ccncc12` [Form III freebase, 5-chloro-2-(4-((2-hydroxy-2-methylpropyl)amino)pyrido[3,4-d]pyridazin-1-yl)phenol], in data set [3], the “DVS mass change 5-95% RH (wt. %)” value worked out at 0.24 wt. %; the “water uptake, weight gain between 5-95% relative humidity (RH)” value was “about 0.24%”; the hygroscopicity result is recorded as “slightly, hygroscopic”; the “XRPD pre- and post-DVS” value was “remained unchanged”. In data set [4], the “XRPD (tested material)” value is on record as “Form III”, the “Purity % a/a (tested material)” value was determined as 99.60 % a/a and the “Purity % a/a (input material)” value is 99.54 % a/a. Besides, the “relative stability of Forms I-IV freebases” value in data set [5] (RT and 50° C.) is “converted rapidly”. Besides, the “evidence of form by XRPD after 2 days” value in data set [5] is “no evidence”. Besides, the “XRPD after thermal treatment to 210° C.” value in data set [1] is recorded as “conversion to Form I freebase”.
On to `CC(C)(O)CNc1nnc(-c2ccc(Cl)cc2O)c2ccncc12` [Form IV freebase, 5-chloro-2-(4-((2-hydroxy-2-methylpropyl)amino)pyrido[3,4-d]pyridazin-1-yl)phenol], for which, in data set [3], the “DVS mass change 5-95% RH (wt. %)” value is 1.59 wt. %; the “water uptake, weight gain between 5-95% relative humidity (RH)” value is recorded as “about 1.59%”; the hygroscopicity result is “slightly, hygroscopic”; the “XRPD pre- and post-DVS” value is listed as “remained unchanged”. Besides, in data set [4], the “XRPD (tested material)” value is on record as “Form IV”, the “Purity % a/a (tested material)” value worked out at 98.53 % a/a and the “Purity % a/a (input material)” value was found to be 99.48 % a/a. Besides, the “relative stability of Forms I-IV freebases” value in data set [5] (RT and 50° C.) is given as “converted rapidly”. Besides, in data set [5], the “evidence of form by XRPD after 2 days” value is on record as “no evidence”. Besides, the “XRPD after thermal treatment to 210° C.” value in data set [1] is “conversion to Form I freebase”.
In the case of `CC(C)(O)CNc1nnc(-c2ccc(Cl)cc2O)c2ccncc12` [Form I freebase, 5-chloro-2-(4-((2-hydroxy-2-methylpropyl)amino)pyrido[3,4-d]pyridazin-1-yl)phenol], in data set [3], the “DVS mass change 5-95% RH (wt. %)” value is reported as 0.5 wt. %; the “water uptake, weight gain between 5-95% relative humidity (RH)” value was found to be 0.5%; the hygroscopicity result is given as “slightly, hygroscopic”; the “XRPD pre- and post-DVS” value is on record as “remain unchanged”. For the same molecule, in data set [4], the “XRPD (tested material)” value is on record as “Form I”, the “Purity % a/a (tested material)” value was determined as 97.94 % a/a and the “Purity % a/a (input material)” value worked out at 98.06 % a/a. Further, in data set [5] (RT and 50° C.), the “relative stability of Forms I-IV freebases” value was “more stable”. In addition, the XRPD after milling entry in data set [7] (None (dry)) is “Form I”. For the same molecule, in data set [7] (ball mill), the “XRPD after dry and solvent-drop milling (overall)” value is “remained largely unchanged”. Moreover, the XRPD after milling result in data set [7] (solvent drop 1 vol. Acetone) is “Form I”. Further, the XRPD after milling result in data set [7] (solvent drop 1 vol. Isopropanol:water (9:1 vol.)) is listed as “Form I”. The XRPD after milling entry in data set [7] (solvent drop 1 vol. Methanol (MeOH)) is recorded as “Form I”. For the same molecule, the XRPD after milling entry in data set [7] (solvent drop 1 vol. Tetrahydrofuran (THF)) is “Form I”. Moreover, the XRPD after milling result in data set [7] (solvent drop 1 vol. acetonitrile:dimethylformamide (8:2 vol.)) is “Form I”.

The values are drawn from patent publication US12516060B2, “Solid freebase forms of 5-chloro-2-(4-((2-hydroxy-2-methylpropyl)amino)pyrido[3,4-d]pyridazin-1-yl)phenol for inhibiting NLRP3 and uses thereof” (Ventus Therapeutics U.S., Inc., priority 2023, dated 2026).
